Data published in patent publication US11612603B1, “3-triazolyl methyl-1,3,5-triazine-2,4-dione compounds and preparation method and application thereof” (priority 2022, dated 2023).
Values joined by “and” are separate entries in the source; they are usually repeats but may differ in a detail not shown here. Equal entries are not always repeated.

Target: SARS-CoV-2 3CL^pro (Severe acute respiratory syndrome coronavirus 2 (2019-nCoV) (SARS-CoV-2), UniProt P0DTD1)
Assay: biochemical
Conditions: for IC50: 3CL^pro FRET

| Compound | IC50 (class symbols) | IC50 | further results |
| --- | --- | --- | --- |
| COc1cc(Cn2c(=O)n(Cc3cnn[nH]3)c(=O)[nH]/c2=N\c2cc3cn(C)nc3cc2Cl)cc(OC)c1 [Compound 14] | 500 to 1000 nM |  |  |
| Cn1cc2cc(/N=c3\[nH]c(=O)n(Cc4cnn[nH]4)c(=O)n3Cc3cc(F)cc(F)c3)c(Cl)cc2n1 [Compound 15] |  | < 200 nM |  |
| Cn1cc2cc(/N=c3\[nH]c(=O)n(Cc4cnnn4C)c(=O)n3Cc3cc(F)c(F)cc3F)c(Cl)cc2n1 [Compound 16] |  | < 200 nM |  |
| Cn1cc2cc(/N=c3\[nH]c(=O)n(Cc4cnnn4C4CC4)c(=O)n3Cc3cc(F)c(F)cc3F)c(Cl)cc2n1 [Compound 21] | 200 to 500 nM |  |  |
| CC(C)n1nncc1Cn1c(=O)[nH]/c(=N\c2cc3cn(C)nc3cc2Cl)n(Cc2cc(F)c(F)cc2F)c1=O [Compound 22] |  | < 200 nM |  |
| CC(C)Cn1nncc1Cn1c(=O)[nH]/c(=N\c2cc3cn(C)nc3cc2Cl)n(Cc2cc(F)c(F)cc2F)c1=O [Compound 23] |  | < 200 nM |  |
| Cn1cc2cc(/N=c3\[nH]c(=O)n(Cc4cnnn4C4CCC4)c(=O)n3Cc3cc(F)c(F)cc3F)c(Cl)cc2n1 [Compound 24] | 200 to 500 nM |  |  |
| (E)-6-(2-methyl-2H-indazol-5-yl)imino)-3-(1-ethyl-1H-1,2,3-triazol-5-yl)methyl)-1-(4-fluorobenzyl)-1,3,5-triazine-2,4-dione [Compound 19] | 200 to 500 nM |  |  |
| (E)-6-(6-chloro-2-methyl-2H-indazol-5-yl)imino)-3-(1-ethyl-1H-1,2,3-triazole-5-(yl)methyl)-1-(4-(trifluoromethyl)benzyl)-1,3,5-triazine-2,4-dione [Compound 18] | < 100 nM | < 100 nM |  |
| (E)-6-(6-chloro-2-methyl-2H-indazol-5-yl)imino)-3-(1-ethyl-1H-1,2,3-triazole-5-yl)methyl)-1-(2,4,5-trifluorobenzyl)-1,3,5-triazine-2,4-dione [Compound 17] | < 100 nM | < 200 nM and < 100 nM and 123 nM | Inhibitory activity on 3CL^pro (inhibition rate) (Conc 0.1 nM): 0.65%; Inhibitory activity on 3CL^pro (inhibition rate) (Conc 1 nM): 5.00%; Inhibitory activity on 3CL^pro (inhibition rate) (Conc 5 nM): 8.20%; Inhibitory activity on 3CL^pro (inhibition rate) (Conc 10 nM): 15.16%; Inhibitory activity on 3CL^pro (inhibition rate) (Conc 20 nM): 18.22%; Inhibitory activity on 3CL^pro (inhibition rate) (Conc 30 nM): 24.39%; Inhibitory activity on 3CL^pro (inhibition rate) (Conc 50 nM): 33.16%; Inhibitory activity on 3CL^pro (inhibition rate) (Conc 100 nM): 45.44%; Inhibitory activity on 3CL^pro (inhibition rate) (Conc 500 nM): 70.62%; Inhibitory activity on 3CL^pro (inhibition rate) (Conc 1000 nM): 89.73% |
| (E)-6-(6-chloro-2-methyl-2H-indazol-5-yl)imino)-3-(1-ethyl-1H-1,2,3-triazole-5-yl)methyl)-1-(4-fluorobenzyl)-1,3,5-triazine-2,4-dione [Compound 20] | 200 to 500 nM |  |  |
